Laboratory results from US20170253607A1, “LONG-ACTING HIV PROTEASE INHIBITOR” (Shionogi & Co., Ltd., priority 2014, published 2017).

Target: HIV-1 PR (Human immunodeficiency virus type 1 group M subtype B, UniProt P04585)
Test: HIV-protease inhibitory activity assay (FRET peptide substrate)
Type: biochemical
Details: Test Example 1
Description: Test Example 1: HIV-Protease Inhibitory Activity Assay
The HIV-1 PR assay was performed by using a FRET (Fluorescence Resonance Energy Transfer) peptide substrate (AnaSpec, Inc., Fremont, Calif.). Initially in the intact FRET peptide, the fluorescence of HiLyte Fluor 488 is quenched by QXL 520. Upon substrate cleavage by PR, the fluorescence is recovered and can be monitored. Test compounds diluted in DMSO was plated to the wells of 384-well plate. Then, mixed with assay buffer (0.1 mol/L NaAc containing 0.5 mol/L NaCl, 1 mmol/L EDTA, 1 mmol/L DTT, and 0.05% Tween 20, pH 4.8) in the presence or absence of HIV-1 PR (0.83 ng), and let it stand for 5 minutes at room temperature. Background fluorescence intensity was measured and let it stand for another 15 minutes at room temperature. The enzyme reaction was started by adding substrate diluted in assay buffer at final concentration of 2 μmol/L, and let it stand for 60 minutes at room temperature. After 60 minutes, the fluorescence intensity was measured. Fluorescence intensity was measured with excitation and emission wavelengths of 485 nm and 535 nm, respectively.
IC50 values were determined using non-linear regression four-parameter logistic equation, y=A+((B−A)/(1+((C/x)̂D))) where A=minimum inhibition, B=maximum inhibition, C=log IC50, D=slope factor, x=concentration of compound and y=% inhibition.

For `CC(C)CN(CC(O)C(Cc1ccc(OCc2ccc3ccccc3c2C(=O)N(C)C)cc1)NC(=O)OC1COC2(C)OCCC12)S(=O)(=O)c1ccc2ncsc2c1` (stereo not shown) [Compound I-163], which IC50 is on record?
Its IC50 is 1.1 nM.

`CC1(C)CCc2sc(-c3ccc(CCCN(CC(O)C(Cc4ccccc4)NC(=O)OC4COC5(C)OCCC45)S(=O)(=O)c4ccc5ncsc5c4)cc3)c(C(=O)O)c2C1` (stereo not shown) [Compound I-164] was tested. Which IC50 did it give?
Its IC50 is 2.07 nM.

With `CC1(C)CCc2sc(-c3ccc(CN(CC(O)C(Cc4ccccc4)NC(=O)OC4COC5(C)OCCC45)S(=O)(=O)c4ccc5ncsc5c4)cc3)c(C(=O)O)c2C1` (stereo not shown) [Compound I-167] as the compound, how does the IC50 read?
Its IC50 is 7.1 nM.

Which IC50 does the source give for `COc1ccc(S(=O)(=O)N(CC(C)C)CC(O)C(Cc2ccc(OCCNC(=O)c3cccc(Cl)c3O)cc2)NC(=O)OC2COC3(C)OCCC23)cc1` (stereo not shown) [Compound I-169] here?
Its IC50 is 0.88 nM.

For `COc1ccc(S(=O)(=O)N(CC(C)C)CC(O)C(Cc2ccc(OCCNC(=O)c3cc(Cl)ccc3O)cc2)NC(=O)OC2COC3(C)OCCC23)cc1` (stereo not shown) [Compound I-170], which IC50 is on record?
Its IC50 is 0.91 nM.

With `COc1ccc(S(=O)(=O)N(CC(C)C)CC(O)C(Cc2ccc(OCCNC(=O)c3cc(C)cc(C)c3O)cc2)NC(=O)OC2COC3(C)OCCC23)cc1` (stereo not shown) [Compound I-171] as the compound, how does the IC50 read?
Its IC50 is 0.94 nM.

`COc1ccc(S(=O)(=O)N(CC(C)C)CC(O)C(Cc2ccc(OCCNC(=O)c3cc(-c4ccc(F)cc4F)ccc3O)cc2)NC(=O)OC2COC3(C)OCCC23)cc1` (stereo not shown) [Compound I-172] was tested. Which IC50 did it give?
The IC50 was 1.02 nM.

How did the IC50 turn out when `CC(C)CN(CC(O)C(Cc1ccc(OCc2ccccc2-c2ccc3c(c2)C(=O)C(c2ccc(F)cc2)C3=O)cc1)NC(=O)OC1COC2(C)OCCC12)S(=O)(=O)c1ccc2c(c1)OCO2` (stereo not shown) [Compound I-174] was run?
The IC50 was 2.08 nM.

With `COc1ccc(S(=O)(=O)N(CC(C)C)CC(O)C(Cc2ccc(OCc3ccccc3-c3ccc4c(c3)C(=O)C(c3ccccc3C)C4=O)cc2)NC(=O)OC2COC3(C)OCCC23)cc1` (stereo not shown) [Compound I-176] as the compound, how does the IC50 read?
Its IC50 is 1.01 nM.

Which IC50 does the source give for `COc1ccc(S(=O)(=O)N(CC(C)C)CC(O)C(Cc2ccc(OCc3ccccc3-c3ccc4c(C(=O)O)csc4c3)cc2)NC(=O)OC2COC3(C)OCCC23)cc1` (stereo not shown) [Compound I-179] here?
The IC50 was 1.1 nM.

`COc1ccc(S(=O)(=O)N(CC(C)C)CC(O)C(Cc2ccc(OCc3ccccc3-c3ccc4[nH]c(=O)c(-c5ccc(Oc6ccccc6)cc5)c(O)c4c3)cc2)NC(=O)OC2COC3(C)OCCC23)cc1` (stereo not shown) [Compound I-180] was tested. Which IC50 did it give?
Its IC50 is 2.71 nM.

Which IC50 does the source give for `COc1ccc(S(=O)(=O)N(CC(C)C)CC(O)C(Cc2ccc(-c3ccc(-c4sc5c(c4C(=O)O)CC(C)(C)CC5)cc3)cc2)NC(=O)OC2COC3(C)OCCC23)cc1` (stereo not shown) [Compound I-183] here?
The IC50 was 2.39 nM.

`COc1ccc(S(=O)(=O)N(CC(C)C)CC(O)C(Cc2ccc(OC3CCN(Cc4sc5c(c4C(=O)O)CC(C)(C)CC5)C3)cc2)NC(=O)OC2COC3(C)OCCC23)cc1` (stereo not shown) [Compound I-184] was tested. Which IC50 did it give?
Its IC50 is 1.64 nM.

Which IC50 does the source give for `COc1ccc(S(=O)(=O)N(CC(C)C)CC(O)C(Cc2ccc(OCc3cnn(-c4ccccc4)c3-c3sc4c(c3C(=O)O)CC(C)(C)CC4)cc2)NC(=O)OC2COC3(C)OCCC23)cc1` (stereo not shown) [Compound I-185] here?
Its IC50 is 1.71 nM.

`COc1ccc(S(=O)(=O)N(CC(C)C)CC(O)C(Cc2ccc(OCc3cccc(OC)c3-c3sc4c(c3C(=O)O)CC(C)(C)CC4)cc2)NC(=O)OC2COC3(C)OCCC23)cc1` (stereo not shown) [Compound I-186] was tested. Which IC50 did it give?
The IC50 was 2.14 nM.

Which IC50 does the source give for `COc1ccc(S(=O)(=O)N(CC(C)C)CC(O)C(Cc2ccc(OCc3nccnc3-c3sc4c(c3C(=O)O)CC(C)(C)CC4)cc2)NC(=O)OC2COC3(C)OCCC23)cc1` (stereo not shown) [Compound I-187] here?
Its IC50 is 2.21 nM.

Which IC50 does the source give for `CC1(C)CCc2sc(-c3cccnc3COc3ccc(CC(NC(=O)OC4COC5(C)OCCC45)C(O)CN(CC4CCCC4)S(=O)(=O)c4ccc5c(c4)CCO5)cc3)c(C(=O)O)c2C1` (stereo not shown) [Compound I-189] here?
The IC50 was 2.53 nM.

How did the IC50 turn out when `COc1ccc(S(=O)(=O)N(CC(C)C)CC(O)C(Cc2ccc(N3CCc4cccc(-c5sc6c(c5C(=O)O)CC(C)(C)CC6)c4C3)cc2)NC(=O)OC2COC3(C)OCCC23)cc1` (stereo not shown) [Compound I-191] was run?
Its IC50 is 2.22 nM.

Which IC50 does the source give for `COc1ccc(S(=O)(=O)N(CC(C)C)C[C@@H](O)[C@H](Cc2ccc(NC(=O)Nc3sc4c(c3C(=O)O)CC(C)(C)CC4)cc2)NC(=O)O[C@H]2CO[C@@]3(C)OCC[C@@H]23)cc1` [Compound I-192] here?
Its IC50 is 2.27 nM.

`COc1ccc(S(=O)(=O)N(CC(C)C)CC(O)C(Cc2ccc(-c3ccccc3-c3sc4c(c3C(=O)O)CC(C)(C)CC4)cc2)NC(=O)OC2COC3(C)OCCC23)cc1` (stereo not shown) [Compound I-193] was tested. Which IC50 did it give?
The IC50 was 3.48 nM.

How did the IC50 turn out when `COc1ccc(S(=O)(=O)N(CC(C)C)CC(O)C(Cc2ccc(OCC3CCCN3Cc3sc4c(c3C(=O)O)CC(C)(C)CC4)cc2)NC(=O)OC2COC3(C)OCCC23)cc1` (stereo not shown) [Compound I-194] was run?
Its IC50 is 1.63 nM.

How did the IC50 turn out when `COc1ccc(S(=O)(=O)N(CC(C)C)CC(O)C(Cc2ccc(OC3CCCN(Cc4sc5c(c4C(=O)O)CC(C)(C)CC5)C3)cc2)NC(=O)OC2COC3(C)OCCC23)cc1` (stereo not shown) [Compound I-198] was run?
The IC50 was 1.95 nM.

Which IC50 does the source give for `COc1ccc(S(=O)(=O)N(CC2CCCC2)CC(O)C(Cc2ccc(OCc3nn(C)cc3-c3sc4c(c3C(=O)O)CC(C)(C)CC4)cc2)NC(=O)OC2COC3(C)OCCC23)cc1` (stereo not shown) [Compound I-199] here?
The IC50 was 2.35 nM.

`COc1ccc(S(=O)(=O)N(CC(C)C)CC(O)C(Cc2ccc(OC3CCN(c4ccc(C#N)cc4-c4sc5c(c4C(=O)O)CC(C)(C)CC5)C3)cc2)NC(=O)OC2COC3(C)OCCC23)cc1` (stereo not shown) [Compound I-200] was tested. Which IC50 did it give?
The IC50 was 5.08 nM.

With `COc1ccc(S(=O)(=O)N(CC(C)C)CC(O)C(Cc2ccc(OC3CCN(c4ccc(C#N)cc4-c4sc5c(c4C(=O)O)CC(C)(C)CC5)CC3)cc2)NC(=O)OC2COC3(C)OCCC23)cc1` (stereo not shown) [Compound I-201] as the compound, how does the IC50 read?
The IC50 was 10.2 nM.

With `COc1ccc(S(=O)(=O)N(CC(C)C)CC(O)C(Cc2ccc(C3=CCC(c4sc5c(c4C(=O)O)CC(C)(C)CC5)CC3)cc2)NC(=O)OC2COC3(C)OCCC23)cc1` (stereo not shown) [Compound I-202] as the compound, how does the IC50 read?
Its IC50 is 12.1 nM.

Which IC50 does the source give for `COc1ccc(S(=O)(=O)N(CC(C)C)CC(O)C(Cc2ccc(OC3CCC(c4sc5c(c4C(=O)O)CC(C)(C)CC5)CC3)cc2)NC(=O)OC2COC3(C)OCCC23)cc1` (stereo not shown) [Compound I-203] here?
The IC50 was 5.02 nM.

`COc1ccc(S(=O)(=O)N(CC(C)C)CC(O)C(Cc2ccc(OCC3CCN(c4ccccc4-c4sc5c(c4C(=O)O)CC(C)(C)CC5)C3)cc2)NC(=O)OC2COC3(C)OCCC23)cc1` (stereo not shown) [Compound I-204] was tested. Which IC50 did it give?
Its IC50 is 2.04 nM.

`COc1ccc(S(=O)(=O)N(CC(C)C)CC(O)C(Cc2ccc(OC3CCN(Cc4ccccc4-c4sc5c(c4C(=O)O)CC(C)(C)CC5)C3)cc2)NC(=O)OC2COC3(C)OCCC23)cc1` (stereo not shown) [Compound I-207] was tested. Which IC50 did it give?
The IC50 was 2.1 nM.

How did the IC50 turn out when `COc1ccc(S(=O)(=O)N(CC(C)C)CC(O)C(Cc2ccc(NC(=O)c3sc4c(c3C(=O)O)CC(C)(C)CC4)cc2)NC(=O)OC2COC3(C)OCCC23)cc1` (stereo not shown) [Compound I-208] was run?
The IC50 was 1.86 nM.

`COc1ccc(S(=O)(=O)N(CC(C)C)CC(O)C(Cc2ccc(N3CCN(c4ccc(-c5sc6c(c5C(=O)O)CC(C)(C)CC6)cc4)CC3)cc2)NC(=O)OC2COC3(C)OCCC23)cc1` (stereo not shown) [Compound I-209] was tested. Which IC50 did it give?
Its IC50 is 3.07 nM.

How did the IC50 turn out when `COc1ccc(S(=O)(=O)N(CC2CCCC2)CC(O)C(Cc2ccc(OC3CCN(C(=O)c4ccc(Cl)cc4-c4sc5c(c4C(=O)O)CC(C)(C)CC5)C3)cc2)NC(=O)OC2COC3(C)OCCC23)cc1` (stereo not shown) [Compound I-210] was run?
The IC50 was 2.15 nM.

With `COc1ccc(S(=O)(=O)N(CC(C)C)CC(O)C(Cc2ccc(OCc3ccccc3-c3ccc(Cn4nc(C(=O)O)c5c4CCC(C)(C)C5)cc3)cc2)NC(=O)OC2COC3(C)OCCC23)cc1` (stereo not shown) [Compound I-213] as the compound, how does the IC50 read?
The IC50 was 1.76 nM.

For `COc1ccc(S(=O)(=O)N(CC(C)C)CC(O)C(Cc2ccc(N3CCc4ccc(-c5sc6c(c5C(=O)O)CC(C)(C)CC6)cc4C3)cc2)NC(=O)OC2COC3(C)OCCC23)cc1` (stereo not shown) [Compound I-215], which IC50 is on record?
Its IC50 is 2.01 nM.
